The test system of series [1] is sodium channel. It counts as binding, rat.
The target in series [2] is T1, DiHydroFolate Reductase (DHFR) (Rattus norvegicus, UniProt Q920D2).
T1 construct: from tissue; host or cells: rat liver homogenate supernatant (47,500 x g)
T1 sequence (Q920D2 1-187): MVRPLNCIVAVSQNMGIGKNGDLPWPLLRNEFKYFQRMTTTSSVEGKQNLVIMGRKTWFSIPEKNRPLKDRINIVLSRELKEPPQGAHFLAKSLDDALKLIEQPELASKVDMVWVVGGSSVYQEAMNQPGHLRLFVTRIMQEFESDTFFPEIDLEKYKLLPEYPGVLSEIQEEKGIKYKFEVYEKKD
Put plainly: inhibition of binding of [3H]methotrexate to rat liver homogenate supernatant. Particulars: for IC50: rat liver supernatant. As to the method:
All steps were carried out at 4° (or on ice). Freshly dissected rat liver was dissected into 0.25M ice-cold Sucrose and subsequently homogenised (U-turrax) in 50 mM pH 6.0 phosphate buffer (10 ml/g tissue) containing 15 mM Dithiothreitol. The resulting homogenate was centrifuged @ 47,500×g for 20 min and supernatant (filtered through cotton wool to remove fatty lumps) stored @-80° before use (Rothenberg et al).
The binding reaction was stopped by the addition of 50 μl of a charcoal suspension (consisting of charcoal, Bovine Serum Albumin and Dextran present in a weight ratio of 100:4:1 suspended in 50 mM pH 6.0 phosphate buffer. Samples were vortexed, allowed to stand for 2 minutes and charcoal was precipitated by microcentrifugation @ full speed for 5 min. Aliquots of clear supernatant were transferred to counting vials containing liquid scintillant for measurement of radioactivity using Liquid Scintillation Spectroscopy.
Percentage inhibition values were calculated by comparison to this value.
(§1) Data are presented as mean±sem of number of experiments indicated in brackets.

Series [3] relates to sodium channel. The series can be described thus: veratrine-evoked uptake of [14C]guanidine into rat forebrain synaptosomes ([14C]guanidine flux). The format is biochemical. How it is done:
The screening strategy is designed to select compounds with appropriate sodium channel blocking activity and low side effect liability. To this end all compounds are processed through the primary sodium channel assay (veratrine-evoked uptake of [^14C]guanidine into rat forebrain synaptosomes) and IC50 values computed from generated concentration-effect curves.
Synaptosomes (heavy and light mitochondrial fraction containing synaptosomes) were prepared by transferring the forebrain (of known wet weight) to a glass Potter vessel to which 9 volumes ice-cold 0.25M sucrose had been added and homogenising, using a teflon pestle, by 8 ‘up and down strokes’ of a Braun Potter S motor driven homogeniser set to 900 rpm. The resulting homogenate was centrifuged at 1036×g at 4° for 10 min and the supernatant collected. The remaining pellet was resuspended, as above, in fresh ice-cold 0.25M sucrose and the centrifugation step repeated. The supernatant fractions were pooled and centrifuged at 40,000×g (average) at 4° for 15 min and the resulting pellet resuspended in the appropriate assay buffer at a concentration of 20-25 mg wet weight per ml appropriate assay buffer.
Both assays were carried out using 14 ml polypropylene test tubes to which a range of concentrations of the compounds under test were added.
Compounds under test were pre-incubated for 10 min at 30° in incubation buffer (50 mM pH 7.4 HEPES (adjusted to pH 7.4 with Tris base), 130 mM choline chloride, 5.5 mM D-glucose, 0.8 mm MgSO4 and 5 mM KCl) containing 7.5 mg original wet weight of tissue and 100 μg veratrine HCl in a final volume of 0.5 ml. […] A further 2×5 ml of ice-cold wash buffer was added to each tube and the vacuum filtration step repeated. The GF/C glass fibre filters were transferred to minivials and 4 ml Picofluor^40 liquid scintillant added using a Brandel™ deposit/dispense system. Radioactivity was measured using a Beckman Liquid Scintillation Counter.
as §1

Series [4] has as its target T2, hERG potassium channel (Homo sapiens, UniProt Q12809). The series can be described thus: inhibition of binding of [3H]astemizole to cell membranes expressing hERG. The settings on record: for selectivity ratio: human, cell membranes expressing hERG, probe [3H]astemizole.
The target in series [5] is T2, hERG potassium channel. Put plainly: in vitro.
Where [6] appears, read: Table 4, tissue prep'n Synaptosomes, read-out: [3H]BTX-B binding Mean (IC50: μM).
The mark [7] stands for this setting: Table 3, rat forebrain synaptosomes, read-out: [14C]guanidine flux Mean (IC50: μM).
[8] abbreviates: read-out: [3H]methotrexate binding Inhibition (% @ assay conc'n), assay concentration 10 μM.
Setting [9] is: read-out: [3H]methotrexate binding Inhibition (% @ assay conc'n), assay concentration 99 μM.
Where [10] appears, read: Table 5, read-out: [14C]guanidine flux IC50.

Here are results for 14 compounds from patent US8268823B2, “Medical use of triazine derivatives” (University of Greenwich, priority 2006, dated 2012).

Read-outs that look alike come from different tables or passages of the source.

T2 sequence (Q12809 whole entry): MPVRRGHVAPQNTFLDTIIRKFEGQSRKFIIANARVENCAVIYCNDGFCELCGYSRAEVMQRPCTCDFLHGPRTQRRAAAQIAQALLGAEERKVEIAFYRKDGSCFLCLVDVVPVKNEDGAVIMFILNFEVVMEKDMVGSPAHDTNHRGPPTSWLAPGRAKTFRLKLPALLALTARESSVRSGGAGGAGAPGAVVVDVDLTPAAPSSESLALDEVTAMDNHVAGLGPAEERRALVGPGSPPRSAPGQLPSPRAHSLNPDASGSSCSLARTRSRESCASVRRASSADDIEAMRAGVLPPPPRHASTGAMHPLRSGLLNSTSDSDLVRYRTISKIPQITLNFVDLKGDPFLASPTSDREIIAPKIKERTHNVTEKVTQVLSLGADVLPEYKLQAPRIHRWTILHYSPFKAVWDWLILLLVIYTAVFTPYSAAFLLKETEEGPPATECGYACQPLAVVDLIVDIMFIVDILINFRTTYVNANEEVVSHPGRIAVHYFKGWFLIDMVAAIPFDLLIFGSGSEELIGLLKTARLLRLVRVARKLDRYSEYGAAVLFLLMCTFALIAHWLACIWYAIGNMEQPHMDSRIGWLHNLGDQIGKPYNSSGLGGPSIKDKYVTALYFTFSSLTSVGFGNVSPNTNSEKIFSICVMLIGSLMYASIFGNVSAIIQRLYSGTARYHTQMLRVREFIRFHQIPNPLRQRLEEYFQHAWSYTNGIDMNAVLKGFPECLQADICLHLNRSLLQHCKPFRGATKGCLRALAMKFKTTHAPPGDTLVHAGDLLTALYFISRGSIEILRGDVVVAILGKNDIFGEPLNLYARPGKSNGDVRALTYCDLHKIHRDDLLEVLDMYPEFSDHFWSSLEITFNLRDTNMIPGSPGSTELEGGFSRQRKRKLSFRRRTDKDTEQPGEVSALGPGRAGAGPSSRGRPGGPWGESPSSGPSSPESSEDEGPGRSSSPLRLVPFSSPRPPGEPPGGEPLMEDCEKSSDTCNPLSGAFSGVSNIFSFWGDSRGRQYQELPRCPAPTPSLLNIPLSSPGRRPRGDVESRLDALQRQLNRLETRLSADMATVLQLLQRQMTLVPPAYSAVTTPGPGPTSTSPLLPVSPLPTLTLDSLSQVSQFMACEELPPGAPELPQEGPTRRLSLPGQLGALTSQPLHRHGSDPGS

Usually IC50 stands for the point on the concentration scale where inhibition reaches its midpoint. Regarding `Nc1nc(N)c(-c2cc(Cl)cc(Cl)c2Cl)c(CF)n1` [BW202W92, reference compound], the IC50 is 4.5 ± 0.4 µM in series [1] (Table 1, synaptosomes, mean ± sem (n), read-out: [3H]BTX-B binding (synaptosomes), mean IC50); 4.1 µM in series [1] (Table 4, tissue prep'n Homogenate, read-out: [3H]BTX-B binding Mean (IC50: μM)); 4.5 µM in series [1] (setting [6]); 2 µM in series [3] (setting [7]); 2.5 µM in series [3] (Table 8, read-out: IC50 (μM) (uptake of [14C]guanidine)). Moreover, the “[3H]methotrexate binding Inhibition (% @ assay conc'n)” value in series [2] (assay concentration 10 μM) is listed as −1%; in series [2] (assay concentration 99 μM) it was 29%. The “pIC50 (uptake of [14C]guanidine)” value in series [3] (Table 8) came out at 5.61 ± 0.04. The “Hill (uptake of [14C]guanidine)” value in series [3] (Table 8, slope) was 1.07.
Usually inhibition stands for the relative decrease from the control value, in per cent. Turning to `C=CCn1nc(-c2cccc(Cl)c2Cl)c(N)nc1=N` [Example 10, 5(3)-Amino-6-(2,3-dichlorophenyl)-2,3(2,5)-dihydro-3(5)-imino-2-(prop-2-enyl)-1,2,4-triazine hemi-methanesulfonate], the figures for the IC50 in series [4], in series [3] (setting [7]) and in series [3] (setting [10]) were 10 µM, 6.1 µM and 6.1 µM, respectively. Further, the selectivity ratio in series [4] amounted to 1.6. The inhibition at 10 µM was -2% in series [2] (setting [8]) and 50% in series [5]. Moreover, in series [2] (setting [9]), the inhibition at 99 µM is -1%.
Turning to `N=c1nc(N)c(-c2cccc(Cl)c2Cl)nn1Cc1cccc(F)c1F` [Example 13, 5(3)-Amino-6-(2,3-dichlorophenyl)-2,3(2,5)-dihydro-3(5)-imino-2-(2,3-difluoro)phenylmethyl-1,2,4-triazine], the IC50 in series [4] turned out to be 1.9 µM; in series [3] (setting [7]), 2.8 µM; in series [3] (setting [10]), 2.8 µM. Further, in series [4], the selectivity ratio stood at 0.7. For the same compound, the values for the inhibition at 10 µM in series [2] (setting [8]) and in series [5] were -3% and 84%, respectively. For the same compound, the inhibition at 99 µM in series [2] (setting [9]) was -4%.
Consider `N=c1nc(N)c(-c2cccc(Cl)c2Cl)nn1Cc1ccccc1F` [Example 14, 5(3)-Amino-6-(2,3-dichlorophenyl)-2,3(2,5)-dihydro-3(5)-imino-2-(2-fluoro)phenylmethyl-1,2,4-triazine], for which the IC50 was 2.5 µM in series [4], 2.8 µM in series [3] (setting [7]) and 2.8 µM in series [3] (setting [10]). The selectivity ratio in series [4] amounted to 0.9. For the same compound, the values for the inhibition at 10 µM in series [2] (setting [8]) and in series [5] were -1% and 80%, respectively. Besides, the inhibition at 99 µM in series [2] (setting [9]) was -4%.
As to `N=c1nc(N)c(-c2cccc(Cl)c2Cl)nn1Cc1cccc(F)c1` [Example 15, 5(3)-Amino-6-(2,3-dichlorophenyl)-2,3(2,5)-dihydro-3(5)-imino-2-(3-fluoro)phenylmethyl-1,2,4-triazine], the IC50 in series [4] was 2 µM; in series [3] (setting [7]), 3.9 µM; in series [3] (setting [10]) it was 3.9 µM. Further, the selectivity ratio in series [4] stood at 0.5. The inhibition at 10 µM is -4% in series [2] (setting [8]) and 83% in series [5]. Besides, the inhibition at 99 µM in series [2] (setting [9]) is -5%.
Consider `COc1ccccc1Cn1nc(-c2cccc(Cl)c2Cl)c(N)nc1=N` [Example 17, 5(3)-Amino-6-(2,3-dichlorophenyl)-2,3(2,5)-dihydro-3(5)-imino-2-(2-methoxy)phenylmethyl-1,2,4-triazine], for which the figures for the IC50 in series [4], in series [3] (setting [7]) and in series [3] (setting [10]) were 1.9 µM, 4.6 µM and 4.6 µM, respectively. In addition, in series [4], the selectivity ratio was 0.4. In addition, the inhibition at 10 µM is -4% in series [2] (setting [8]) and 84% in series [5]. Further, the inhibition at 198 µM in series [2] (read-out: [3H]methotrexate binding Inhibition (% @ assay conc'n), assay concentration 198 μM) was -3%.
For `COc1cccc(Cn2nc(-c3cccc(Cl)c3Cl)c(N)nc2=N)c1` [Example 18, 5(3)-Amino-6-(2,3-dichlorophenyl)-2,3(2,5)-dihydro-3(5)-imino-2-(3-methoxy)phenylmethyl-1,2,4-triazine], the IC50 in series [4] worked out at 1.5 µM; in series [3] (setting [7]), 3.1 µM; in series [3] (setting [10]), 3.1 µM. The selectivity ratio in series [4] stood at 0.5. Further, the inhibition at 10 µM in series [2] (setting [8]) is -4%; in series [5], 87%. Further, the inhibition at 99 µM in series [2] (setting [9]) was -5%.
On to `N=c1nc(N)c(-c2cccc(Cl)c2Cl)nn1Cc1ccccc1C(F)(F)F` [Example 23, 5(3)-Amino-6-(2,3-dichlorophenyl)-2,3(2,5)-dihydro-3(5)-imino-2-(2-trifluoromethyl)phenylmethyl-1,2,4-triazine], for which the IC50 was 1.1 µM in series [4], 4.4 µM in series [3] (setting [7]) and 4.4 µM in series [3] (setting [10]). Moreover, the selectivity ratio in series [4] amounted to 0.3. Further, in series [5], the inhibition at 10 µM stood at 90%.
As to `N=c1nc(N)c(-c2cccc(Cl)c2Cl)nn1Cc1cccc(C(F)(F)F)c1` [Example 24, 5(3)-Amino-6-(2,3-dichlorophenyl)-2,3(2,5)-dihydro-3(5)-imino-2-(3-trifluoromethyl)phenylmethyl-1,2,4-triazine], the IC50 turned out to be 0.6 µM in series [4], 4 µM in series [3] (setting [7]) and 4 µM in series [3] (setting [10]). Besides, the selectivity ratio in series [4] was found to be 0.2. The inhibition at 10 µM in series [5] is 94%.
Turning to `N=c1nc(N)c(-c2cccc(Cl)c2Cl)nn1Cc1ccsc1` [Example 29, 5(3)-Amino-6-(2,3-dichlorophenyl)-2,3(2,5)-dihydro-3(5)-imino-2-(3-thienylmethyl)-1,2,4-triazine], the IC50 in series [1] (setting [6]) was 2.2 µM; in series [1] (Table 5, Synaptosome data, read-out: [3H]BTX-B IC50), 2.2 µM; in series [4] it was 2 µM; in series [2] it was more than 250 µM; in series [3] (setting [7]), 7.3 µM; in series [3] (setting [10]), 7.3 µM. Also, the selectivity ratio was 0.3 in series [4] and 0.9 in series [5] (hERG / [3H]BTX-B selectivity, ratio of extrapolated hERG IC50 to [3H]BTX-B IC50 (synaptosomes)). For the same compound, in series [5], the inhibition at 10 µM came out at 83%.
As to `Cn1nc(-c2cccc(Cl)c2F)c(N)nc1=N` [Example 36, 5(3)-Amino-6-(3-chloro-2-fluorophenyl)-2,3(2,5)-dihydro-3(5)-imino-2-methyl-1,2,4-triazine], the IC50 in series [4] was 20.3 µM; in series [2], more than 300 µM; in series [3] (setting [7]) it was 129 µM; in series [3] (setting [10]), 129 µM. The selectivity ratio in series [4] is 0.2. For the same compound, the inhibition at 10 µM in series [5] was determined as 33%.
For the compound `N=c1nc(N)c(-c2cccc(Cl)c2Cl)nn1CC1CCNCC1` [Example 38, 4-[5(3)-Amino-6-(2,3-dichlorophenyl)-2,3(2,5)-dihydro-3(5)-imino-1,2,4-triazin-2-ylmethyl]piperidine dimethanesulfonate or 5(3)-Amino-6-(2,3-dichlorophenyl)-2,3(2,5)-dihydro-3(5)-imino-2-(piperidin-4-yl)methyl-1,2,4-triazine], the IC50 in series [4] is 2.5 µM; in series [2] it was more than 300 µM; in series [3] (setting [7]), 20.9 µM; in series [3] (setting [10]) it was 20.9 µM. Moreover, the selectivity ratio in series [4] was 0.1. Moreover, the inhibition at 10 µM in series [5] turned out to be 80%.
With `Cn1nc(-c2cc(Cl)ccc2Cl)c(N)nc1=N` [Example 48, 5(3)-Amino-6-(2,5-dichlorophenyl)-2,3(2,5)-dihydro-3(5)-imino-2-methyl-1,2,4-triazine methanesulfonate], the IC50 in series [2] worked out at 251 µM; in series [3] (setting [7]) it was 28.2 µM.
The corresponding values for `CCn1nc(-c2cc(Cl)ccc2Cl)c(N)nc1=N` [Example 49, 5(3)-Amino-6-(2,5-dichlorophenyl)-2,3(2,5)-dihydro-3(5)-imino-2-ethyl-1,2,4-triazine methanesulfonate] are 95 µM and 20.9 µM.
